# Results reported in patent US20160052936A1, “SPIROINDOLINE DERIVATIVES FOR USE AS GONADOTROPIN-RELEASING HORMONE RECEPTOR ANTAGONISTS” (BAYER PHARMA AKTIENGESELLSCHAFT, priority 2013, published 2016).
# Molecular target: T1, human GnRH receptor (Homo sapiens, UniProt P30968)
# T1 construct: host or cells: CHO cells stably expressing human GnRH receptor (line established by Prof. Thomas Gudermann)
# T1 sequence (P30968 1-328): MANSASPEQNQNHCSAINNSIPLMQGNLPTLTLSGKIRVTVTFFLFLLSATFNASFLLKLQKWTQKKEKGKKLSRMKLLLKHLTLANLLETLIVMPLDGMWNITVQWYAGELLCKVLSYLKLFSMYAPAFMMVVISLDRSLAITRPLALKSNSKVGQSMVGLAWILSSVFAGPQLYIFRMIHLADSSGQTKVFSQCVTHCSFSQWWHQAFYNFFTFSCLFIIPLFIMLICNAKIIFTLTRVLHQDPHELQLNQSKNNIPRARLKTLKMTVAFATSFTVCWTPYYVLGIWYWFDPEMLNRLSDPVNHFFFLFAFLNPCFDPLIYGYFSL
# Experiment: IP-One HTRF assay with buserelin stimulation
# Format: cell-based
# Conditions: CHO cells stably expressing human GnRH receptor; buserelin at EC80; read-out: Potency in IP-One HTRF assay with buserelin (at EC80) stimulation, given as IC50
# From the text: By using homogenous time-resolved fluorescence resonance energy transfer (HTRF), the generation of one component of the GnRH-R signalling cascade can be measured. After stimulation of CHO cells stably expressing human GnRH receptor (established by Prof. Thomas Gudermann, currently University of Marburg, Germany; supplied as frozen cell aliquots by Cell Culture Services, Hamburg, Germany) with the EC80 of the GnRH agonist buserelin, Gq protein-coupled receptor signalling cascade is activated resulting in PLC-dependent cleavage of PIP2 to Inositol-1,4,5-triphosphate (IP3) and Diacylglycerol. The second messenger IP3 is degraded intracellularly to myo-inositol. Inhibition of the final degradation step from Inositol-1-phosphate (IP1) to myo-inositol by addition of lithium chloride leads to accumulation of IP1 in the cells. In cell lysates, IP1 can be detected via an antibody-based HTRF detection technology, where IP1 can displace the FRET acceptor IP1-d2 from binding by Terbium-labelled anti-IP1 antibody as donor resulting in a signal decrease. Compounds were tested for their capability of inhibiting GnRH-R activation by buserelin. For all IP-One HTRF® assays reagents of Cisbio Bioassays (IP-One Tb Jumbo kit, #62IPAPEJ; Cisbio Bioassays, Bagnols sur Cèze Cedex, France) were used.
# For the assay, frozen cell aliquots were thawed and a cell suspension (3.33×10^6 cells/mL) containing IP1-d2 (dilution 1:40) was prepared and incubated at 37° C. After 1 h 3 μl of the cell suspension were added to 50 nl of a 100-fold concentrated solution of the test compound in DMSO pre-dispensed in a well of a white low-volume 384-well microtiter plate (Greiner Bio-One, Frickenhausen, Germany). […] Plates were incubated for 1 h at 37° C. and 5% carbon dioxide before the cells were lysed by adding 3 μl Terbium-labelled anti-IP1 antibody (1:40) diluted in Conjugate & Lysis buffer as supplied with the kit. After an incubation for 1 h at 22° C. to enable complete cell lysis and antibody binding to free IP1 or IP1-d2, plates were measured in an HTRF reader, e.g. a RUBYstar, PHERAstar (both BMG Labtechnologies, Offenburg, Germany) or a Viewlux (PerkinElmer LAS, Rodgau-Jügesheim, Germany).
# From the fluorescence emissions at 665 nm (FRET) and at 620 nm (background signal of Terbium-antibody), the ratio (emission at 665 nm divided by emission at 620 nm) was calculated and the data were normalized (reaction without test compound=0% inhibition; all other assay components except agonist=100% inhibition). On the same microtiter plate, compounds were tested at 10 different concentrations in the range of 20 μM to 1 nM (20 μM, 6.7 μM, 2.2 μM, 0.74 μM, 0.25 μM, 82 nM, 27 nM, 9.2 nM, 3.1 nM and 1 nM; dilution series prepared before the assay at the level of the 100-fold conc. stock solutions by serial 1:3 dilutions in 100% DMSO) in duplicate values for each concentration. By using an in-house software, the IC50 values were calculated by a 4 parameter fit.
# Within the meaning of the present invention the antagonist activity is reflected by the ability of a compound of the invention to antagonize human GnRH receptor stimulation in IP-One HTRF® assay at least three times the standard deviation over the background level.
row,SMILES,IC50 [nM]
1,"O=C(NCc1ncc(C(F)(F)F)cc1Cl)c1ccc2c(c1)C1(CCS(=O)(=O)CC1)C(C1CC1)N2S(=O)(=O)c1ccc(OC(F)F)cc1 (racemic) [Example 16, N-{[3-chloro-5-(trifluoromethyl)pyridin-2-yl]methyl}-2-cyclopropyl-1-{[4-(difluoromethoxy)phenyl]sulfonyl}-1,2,2′,3′,5′,6′-hexahydrospiro[indole-3,4′-thiopyran]-5-carboxamide 1′,1′-dioxide]",37
2,"O=C(NCc1ncc(C(F)(F)F)cc1Cl)c1ccc2c(c1)C1(CCS(=O)(=O)CC1)C(C1CC1)N2S(=O)(=O)c1ccc(F)cc1 (racemic) [Example 3, N-{[3-chloro-5-(trifluoromethyl)pyridin-2-yl]methyl}-2-cyclopropyl-1-[(4-fluorophenyl)sulfonyl]-1,2,2′,3′,5′,6′-hexahydrospiro[indole-3,4′-thiopyran]-5-carboxamide 1′,1′-dioxide]",53
3,"N#Cc1ccc(S(=O)(=O)N2c3ccc(C(=O)NCc4ncc(C(F)(F)F)cc4F)cc3C3(CCS(=O)(=O)CC3)C2C2CC2)cc1 (racemic) [Example 7, 1-[(4-cyanophenyl)sulfonyl]-2-cyclopropyl-N-{[3-fluoro-5-(trifluoromethyl)pyridin-2-yl]methyl}-1,2,2′,3′,5′,6′-hexahydrospiro[indole-3,4′-thiopyran]-5-carboxamide 1′,1′-dioxide]",69
4,"O=C(NCc1ncc(Cl)cc1C(F)(F)F)c1ccc2c(c1)C1(CCS(=O)(=O)CC1)C(C1CC1)N2S(=O)(=O)c1ccc(F)cc1 (racemic) [Example 4, N-{[5-chloro-3-(trifluoromethyl)pyridin-2-yl]methyl}-2-cyclopropyl-1-[(4-fluorophenyl)sulfonyl]-1,2,2′,3′,5′,6′-hexahydrospiro[indole-3,4′-thiopyran]-5-carboxamide 1′,1′-dioxide]",69
5,"O=C(NCc1ncc(C(F)(F)F)cc1F)c1ccc2c(c1)C1(CCS(=O)(=O)CC1)[C@@H](C1CC1)N2S(=O)(=O)c1ccc(F)cc1 (single isomer, unassigned) [Example 1.2]",6990
6,"N#Cc1ccc(S(=O)(=O)N2c3ccc(C(=O)NCc4ncc(C(F)(F)F)cc4Cl)cc3C3(CCS(=O)(=O)CC3)[C@H]2C2CC2)cc1 (single isomer, unassigned) [Example 8.2]",3560
7,"NC(=O)c1ccc(S(=O)(=O)N2c3ccc(C(=O)NCc4ncc(C(F)(F)F)cc4Cl)cc3C3(CCS(=O)(=O)CC3)C2C2CC2)cc1 (single isomer, unassigned) [Example 17.1]",> 20000
8,"O=C(NCc1ncc(C(F)(F)F)cc1Cl)c1ccc2c(c1)C1(CCS(=O)(=O)CC1)C(C1CC1)N2S(=O)(=O)c1ccc(Cl)cc1 (racemic) [Example 19, 1-[(4-chlorophenyl)sulfonyl]-N-{[3-chloro-5-(trifluoromethyl)pyridin-2-yl]methyl}-2-cyclopropyl-1,2,2′,3′,5′,6′-hexahydrospiro[indole-3,4′-thiopyran]-5-carboxamide 1′,1′-dioxide]",31
9,"COc1cccc(S(=O)(=O)N2c3ccc(C(=O)NCc4ncc(C(F)(F)F)cc4F)cc3C3(CCS(=O)(=O)CC3)C2C2CC2)c1 (racemic) [Example 6, 2-cyclopropyl-N-{[3-fluoro-5-(trifluoromethyl)pyridin-2-yl]methyl}-1-[(3-methoxyphenyl)sulfonyl]-1,2,2′,3′,5′,6′-hexahydrospiro[indole-3,4′-thiopyran]-5-carboxamide 1′,1′-dioxide]",231
10,"O=C(NCc1ncc(C(F)(F)F)cc1F)c1ccc2c(c1)C1(CCS(=O)(=O)CC1)C(C1CC1)N2S(=O)(=O)c1ccc(Cl)cc1 (single isomer, unassigned) [Example 18.1]",31
11,"O=C(NCc1ncc(C(F)(F)F)cc1F)c1ccc2c(c1)C1(CCS(=O)(=O)CC1)C(C1CC1)N2S(=O)(=O)c1cccc(OC(F)(F)F)c1 (racemic) [Example 11, 2-cyclopropyl-N-{[3-fluoro-5-(trifluoromethyl)pyridin-2-yl]methyl}-1-{[3-(trifluoromethoxy)phenyl]sulfonyl}-1,2,2′,3′,5′,6′-hexahydrospiro[indole-3,4′-thiopyran]-5-carboxamide 1′,1′-dioxide]",760
12,"O=C(NCc1ncc(C(F)(F)F)cc1F)c1ccc2c(c1)C1(CCS(=O)(=O)CC1)C(C1CC1)N2S(=O)(=O)c1ccc(F)cc1 (racemic) [Example 1, 2-cyclopropyl-1-[(4-fluorophenyl)sulfonyl]-N-{[3-fluoro-5-(trifluoromethyl)pyridin-2-yl]methyl}-1,2,2′,3′,5′,6′-hexahydrospiro[indole-3,4′-thiopyran]-5-carboxamide 1′,1′-dioxide]",420
13,"Cc1cnc(CNC(=O)c2ccc3c(c2)C2(CCS(=O)(=O)CC2)C(C2CC2)N3S(=O)(=O)c2ccc(F)cc2)c(C(F)(F)F)c1 (racemic) [Example 5, 2-cyclopropyl-1-[(4-fluorophenyl)sulfonyl]-N-{[5-methyl-3-(trifluoromethyl)pyridin-2-yl]methyl}-1,2,2′,3′,5′,6′-hexahydrospiro[indole-3,4′-thiopyran]-5-carboxamide 1′,1′-dioxide]",864
14,"O=C(NCc1ncc(C(F)(F)F)cc1Cl)c1ccc2c(c1)C1(CCS(=O)(=O)CC1)C(C1CC1)N2S(=O)(=O)c1ccc(OC(F)F)cc1 (single isomer, unassigned) [Example 16.2]",879
15,"NC(=O)c1ccc(S(=O)(=O)N2c3ccc(C(=O)NCc4ncc(C(F)(F)F)cc4Cl)cc3C3(CCS(=O)(=O)CC3)C2C2CC2)cc1 (racemic) [Example 17, 1-[(4-carbamoylphenyl)sulfonyl]-N-{[3-chloro-5-(trifluoromethyl)pyridin-2-yl]methyl}-2-cyclopropyl-1,2,2′,3′,5′,6′-hexahydrospiro[indole-3,4′-thiopyran]-5-carboxamide 1′,1′-dioxide]",260
16,"O=C(NCc1ncc(C(F)(F)F)cc1F)c1ccc2c(c1)C1(CCS(=O)(=O)CC1)C(C1CC1)N2S(=O)(=O)c1ccc(Cl)cc1 (racemic) [Example 18, 1-[(4-chlorophenyl)sulfonyl]-2-cyclopropyl-N-{[3-fluoro-5-(trifluoromethyl)pyridin-2-yl]methyl}-1,2,2′,3′,5′,6′-hexahydrospiro[indole-3,4′-thiopyran]-5-carboxamide 1′,1′-dioxide]",65
17,"O=C(NCc1ncc(C(F)(F)F)cc1Cl)c1ccc2c(c1)C1(CCS(=O)(=O)CC1)C(C1CC1)N2S(=O)(=O)c1cccc(OC(F)(F)F)c1 (racemic) [Example 12, N-{[3-chloro-5-(trifluoromethyl)pyridin-2-yl]methyl}-2-cyclopropyl-1-{[3-(trifluoromethoxy)phenyl]sulfonyl}-1,2,2′,3′,5′,6′-hexahydrospiro[indole-3,4′-thiopyran]-5-carboxamide 1′,1′-dioxide]",219
18,"N#Cc1cccc(S(=O)(=O)N2c3ccc(C(=O)NCc4ncc(C(F)(F)F)cc4Cl)cc3C3(CCS(=O)(=O)CC3)C2C2CC2)c1 (racemic) [Example 10, N-{[3-chloro-5-(trifluoromethyl)pyridin-2-yl]methyl}-1-[(3-cyanophenyl)sulfonyl]-2-cyclopropyl-1,2,2′,3′,5′,6′-hexahydrospiro[indole-3,4′-thiopyran]-5-carboxamide 1′,1′-dioxide]",29
